Results on six molecules are retold here after patent US10294202B2, “Pyrrolidinones as herbicides” (FMC Corporation, priority 2013, dated 2019).

The test system of test [1] is watergrass, late. Briefly: Test F flood (paddy) test. In kind it is in vivo, Echinochloa oryzicola. To be noted: 21 d, scale 0-100. From the text:
Three plastic pots (ca. 16-cm diameter) per rate were partially filled with sterilized Tama silt loam soil comprising a 35:50:15 ratio of sand, silt and clay and 2.6% organic matter. Separate plantings for each of the three pots were as follows. Seeds from the U.S. of monochoria (Monochoria vaginalis), sedge, umbrella (small-flower umbrella sedge, Cyperus difformis), bulrush, […] bulrush, Scirpus juncoides), and […] (purple […] coccinea), were planted into one 16-cm pot for each rate. Seeds from the U.S. of flatsedge, rice (rice flatsedge, Cyperus iria), sprangletop, Brdd. (bearded sprangletop, Leptochloa fascicularis), one stand of 9 or 10 water seeded rice seedlings (Rice, W.S. Jap, Oryza sativa cv. 'Japonica-[…]' or Rice, W.S. Ind, 'Indica'), and two stands of 3 or 4 seedlings of rice, transplanted (transplanted rice, Oryza sativa cv. 'Japonica-[…]') were planted into one 16-cm pot for each rate. Seeds from the U.S. of barnyardgrass (Echinochloa crus-galli), […] (common […], Alisma plantago-aquatica), and watergrass, late (late watergrass, Echinochloa oryzicola) were planted into one 16-cm pot for each rate. Plantings were sequential so that crop and weed species were at the 2.0 to 2.5-leaf stage at time of treatment. Potted plants were grown in a greenhouse with day/night temperature settings of 30/27° C., and supplemental balanced lighting was provided to maintain a 16-h photoperiod. Test pots were maintained in the greenhouse until test completion. At time of treatment, test pots were flooded to 3 cm above the soil surface, treated by application of test compounds directly to the paddy water, and then maintained at that water depth for the duration of the test. Effects of treatments on rice and weeds were visually evaluated by comparison to untreated controls after 21 d. Plant response ratings, summarized in Table F, are based on a scale of 0 to 100 where 0 is no effect and 100 is complete control. A dash (-) response means no test result.

In test [2] the test system is field poppy. Briefly: Test D pre-/postemergence herbicide test. To be noted: Preemergence; for Plant response rating, Field Poppy: scale 0 to 100 (0 no effect, 100 complete control). In kind it is in vivo, Papaver rhoeas. In a few lines:
(§1)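 Visual ratings from 0 (no effect) to 100 (complete control) were made against untreated controls 7 to 21 days after treatment. Application was both preemergence, on silt loam soil, and postemergence, to 1- to 4-leaf plants 2-18 cm tall; compounds were formulated in a non-phytotoxic surfactant-containing solvent.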

Test [3] concerns foxtail, green. Briefly: Test D pre-/postemergence herbicide test. The class given is in vivo, Setaria viridis. To be noted: Preemergence; for Plant response rating, Foxtail, Green: scale 0 to 100 (0 no effect, 100 complete control). In short, it runs like this:
as §1

For test [4], the system named is deadnettle. Briefly: Test D pre-/postemergence herbicide test. In kind it is in vivo, Lamium amplexicaule. To be noted: Preemergence; for Plant response rating, Deadnettle: scale 0 to 100 (0 no effect, 100 complete control). In short, it runs like this: as §1
The subject of test [5] is chamomile. Kind of test: Test D pre-/postemergence herbicide test. The following applies: Preemergence; for Plant response rating, Chamomile: scale 0 to 100 (0 no effect, 100 complete control). In kind it is in vivo, Matricaria inodora. In a few lines: as §1
Test [6] has as its system windgrass. Briefly: Test D pre-/postemergence herbicide test. In kind it is in vivo, Apera spica-venti. To be noted: Preemergence, scale 0 to 100 (0 no effect, 100 complete control). In short, it runs like this:
as §1

The test system of test [7] is crabgrass, Brazil. Kind of test: Test E preemergence herbicide test. The arrangement: key: 0 = no effect, 100 = complete control. The class given is in vivo, Digitaria horizontalis. In short, it runs like this: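 Response is a 0–100 visual rating against controls (100 = complete control), taken 21 days after preemergence treatment of seeded silt loam soil held in a greenhouse.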

Take `O=C1NCC(c2cccc(C(F)(F)F)c2)C1C(=O)Nc1ccccc1F` (racemic) [Compound 3]: the figures for the “Plant response rating, Watergrass, Late” value in test [1] (250 g ai/ha) and in test [1] (500 g ai/ha) were 80 and 85, respectively.

Take `O=C1NCC(c2cccc(C(F)(F)F)c2)C1C(=O)Nc1ccc(F)cc1F` (racemic) [Compound 207]: the figures for the “Plant response rating, Field Poppy” value in test [2] (31 g ai/ha), in test [2] (62 g ai/ha) and in test [2] (125 g ai/ha) were 55, 75 and 80, respectively. Besides, the Plant response rating was determined as 100 in test [2] (250 g ai/ha, Field Poppy, scale 0 to 100); 90 in test [3] (250 g ai/ha, Foxtail, Green, scale 0 to 100); 20 in test [4] (250 g ai/ha, Deadnettle, scale 0 to 100); 85 in test [5] (250 g ai/ha, Chamomile, scale 0 to 100). The “Plant response rating, Foxtail, Green” value in test [3] (31 g ai/ha) is given as 15; in test [3] (62 g ai/ha), 60; in test [3] (125 g ai/ha), 75. For the same molecule, the “Plant response rating, Deadnettle” value in test [4] (31 g ai/ha) is recorded as 0; in test [4] (62 g ai/ha) it was 0; in test [4] (125 g ai/ha) it was 20. Also, the “Plant response rating, Chamomile” value is 75 in test [5] (31 g ai/ha), 80 in test [5] (62 g ai/ha) and 85 in test [5] (125 g ai/ha). In addition, the “Plant response rating, Windgrass” value in test [6] (31 g ai/ha) stood at 5; in test [6] (62 g ai/ha), 20; in test [6] (125 g ai/ha) it was 20; in test [6] (250 g ai/ha) it was 65. Moreover, the “Plant response rating, Watergrass, Late” value in test [1] (125 g ai/ha) was determined as 65; in test [1] (250 g ai/ha), 85; in test [1] (500 g ai/ha), 90.

Turning to `O=C1NCC(c2ccc(C(F)(F)F)c(F)c2)C1C(=O)Nc1cccc(F)c1F` (racemic) [Compound 247], the “Plant response rating, Watergrass, Late” value in test [1] (125 g ai/ha) was 65; in test [1] (250 g ai/ha), 65; in test [1] (500 g ai/ha), 70; in test [1] (1000 g ai/ha) it was 85; in test [1] (2000 g ai/ha), 90.

Consider `O=C1NCC(c2cccc(Br)c2)C1C(=O)Nc1ccccc1F` (stereo not shown) [Compound 66], for which the “Plant response rating, Crabgrass, Brazil” value in test [7] (16 g ai/ha) turned out to be 85; in test [7] (31 g ai/ha) it was 85; in test [7] (62 g ai/ha) it was 95; in test [7] (125 g ai/ha), 98; in test [7] (250 g ai/ha) it was 98.

In the case of `O=C1NCC(c2ccc(C(F)(F)F)cc2)C1C(=O)Nc1ccc(F)c(F)c1F` (stereo not shown) [Compound 232], the “Plant response rating, Crabgrass, Brazil” value in test [7] (31 g ai/ha) came to 95; in test [7] (62 g ai/ha) it was 98; in test [7] (125 g ai/ha), 98; in test [7] (250 g ai/ha) it was 98.

`CN1CC(c2ccc(F)cc2)C(C(=O)Nc2cccc(F)c2F)C1=O` (stereo not shown) [Compound 271]: the “Plant response rating, Watergrass, Late” value was found to be 45 in test [1] (64 g ai/ha), 75 in test [1] (125 g ai/ha), 100 in test [1] (250 g ai/ha) and 100 in test [1] (500 g ai/ha).
